According to patent publication EP0292023A2, “Pyrimidine derivatives” (F. HOFFMANN-LA ROCHE AG, priority 1987, dated 1988):

Tests used:
[1] = system: Schaf-Lentiviren des Stammes WLC-1; experiment: Activity against sheep lentivirus (protection from cytopathic effect in SCP cells); assay type: cell-based; settings: minimal concentration giving 100% protection from cytopathic effect, 12 days incubation at 37°C, crystal violet staining, visual reading
From the text: (A) Aktivität gegen Schaf-Lentiviren
In diesem Versuch verwendet man Schaf-Lentiviren des Stammes WLC-1, der im Plexus chorioideus (SCP) des Schafs mit 10% fötalem Rinderserum enthaltenden Medium gezüchtet wurde. Die Verbindungen werden in 96 Vertiefungen enthaltenden Platten getestet. Jede Vertiefung enthält 10⁴SCP-Zellen, die 48 Stunden inkubiert wurden. Die Testverbindungen werden, gelöst in Dimethylsulfoxid (DMSO), bis zu einer Endkonzentration von 1% DMSO hinzugefügt, zusammen mit einem Virus-Inokulum, das innert 12 Tagen einen 100%igen cytopathischen Effekt bewirkt. Nach 12-tägiger Inkubation bei 37°C werden die Platten mit Kristallviolett angefärbt. Effekt in den die Testverbindungen enthaltenden Vertiefungen wird visuell durch Vergleich mit lediglich den Virus enthaltenden Vertiefungen und nicht-infizierten Vertiefungen ermittelt. Die Wirksamkeit (MPC) ist die minimale Konzentration der Testverbindung, die einen 100%igen Schutz bewirkt. In diesem Versuch hat DFAC einen MPC von 2,5 µM.

HTLV III (Stamm RF) = experiment: Activity against HIV (p24 antigen capture assay in infected C8166 cells); assay type: cell-based; settings: concentration giving 50% protection; C8166 cells infected with 10-fold TCD₅₀, 72 h incubation at 37°C, viral protein 24 antigen in supernatant; read-out: IC₅₀
Method: (B) Wirksamkeit gegen HIV
In diesem Versuch verwendet man HTLV III (Stamm RF), gezüchtet in C8166-Zellen (eine menschliche CD4⁺ T-Lymphoblastenlinie), RPM1 1640 Medium mit Bicarbonatpuffer, Antibiotika und 10%igem fötalem Rinderserum. Eine Zellensuspen sion wird mit der 10-fachen TCD₅₀ des Virus infiziert. Man lässt 90 Minuten bei 37°C adsorbieren. Die Zellen werden mit dem Medium gewaschen. Der Versuch wird in 6 ml Gewebekulturröhren durchgeführt. Jedes Rohr enthalt 2 x 10⁵ infizierte Zellen in 1,5 ml Medium. Es werden 15 µl einer Lösung der Substanz in wässrigem Medium oder in DMSO zugesetzt. Nach 72 Stunden Inkubation bei 37°C in einer feuchten 5% CO₂ enthaltenden Atmosphäre werden die Kulturen zentrifugiert. Ein aliquoter Teil des Ueberstandes wird solubilisiert und einem Antigenabfangversuch unterworfen unter Verwendung eines primären Antiserums mit besonderer Reaktivität gegen virales Protein 24 und eines Meerrettich-Peroxidase-Detektionssystems. Die Farbenerzeugung wird spektrophotometrisch gemessen und in Abhängigkeit der Konzentration der Testsubstanz dargestellt. Die einen 50%igen Schutz erzeugende Konzentration (IC₅₀) wird ermittelt. In diesem Test hat DFAC ein IC₅₀ von 1 µM.

## Nc1ccn([C@@H]2O[C@H](CO)C[C@@H]2F)c(=O)n1 [DFAC, 1-(2′,3′-Dideoxy-2′-fluor-b-D-arabinofuranosyl)cytosin]
[1]
  MPC: 2,5 µM
HTLV III (Stamm RF)
  IC50: 1 µM
